These are literature values, as cited in patent publication US11718625B2, “Near-infrared fluorescent molecule active targeting folate receptor and preparation method thereof” (NANJING NUOYUAN MEDICAL DEVICES CO., LTD, priority 2020, dated 2023).

One data set concerns tumor. The following applies: clinical practice.
The conditions of data set [1]: at maximum injection dosage less than 2 mg/kg; literature report and own detection data.

In the case of `CC1(C)C(/C=C/C=C/C=C/C=C2\N(CCCCS(=O)(=O)O)c3ccc4ccccc4c3C2(C)C)=[N+](CCCCS(=O)(=O)[O-])c2ccc3ccccc3c21` [ICG, Indocyanine green], the “waiting time to generate sufficient fluorescence contrast (tumor: normal tissue)” value in the data set on tumor is listed as “at least 12 hours”. The “concentration of the ICG in the human body tumors” value in data set [1] was 10 to 1000 nM. Besides, the quantum yield entry (in an aqueous solution) is “less than 1%”. In addition, the “wavelength of emitted fluorescence” value (under irradiation with the wavelength of 780 nm) was 830 nm.
